In US20100113465A1, “7-AZASPIRO[3.5]NONANE-7-CARBOXAMIDE COMPOUNDS” (Pfizer Inc., priority 2008, published 2010):

What was measured:
[1] = target: T1, human FAAH (Homo sapiens, UniProt O00519); test: FAAH assay, human FAAH enzyme inhibition (kinact/Ki); assay type: biochemical; details: oleamide substrate 50 μM, 30° C., read-out: hFAAH kinact/Ki
T1 construct: made in house; host or cells: E. coli
T1 sequence (O00519 1-579): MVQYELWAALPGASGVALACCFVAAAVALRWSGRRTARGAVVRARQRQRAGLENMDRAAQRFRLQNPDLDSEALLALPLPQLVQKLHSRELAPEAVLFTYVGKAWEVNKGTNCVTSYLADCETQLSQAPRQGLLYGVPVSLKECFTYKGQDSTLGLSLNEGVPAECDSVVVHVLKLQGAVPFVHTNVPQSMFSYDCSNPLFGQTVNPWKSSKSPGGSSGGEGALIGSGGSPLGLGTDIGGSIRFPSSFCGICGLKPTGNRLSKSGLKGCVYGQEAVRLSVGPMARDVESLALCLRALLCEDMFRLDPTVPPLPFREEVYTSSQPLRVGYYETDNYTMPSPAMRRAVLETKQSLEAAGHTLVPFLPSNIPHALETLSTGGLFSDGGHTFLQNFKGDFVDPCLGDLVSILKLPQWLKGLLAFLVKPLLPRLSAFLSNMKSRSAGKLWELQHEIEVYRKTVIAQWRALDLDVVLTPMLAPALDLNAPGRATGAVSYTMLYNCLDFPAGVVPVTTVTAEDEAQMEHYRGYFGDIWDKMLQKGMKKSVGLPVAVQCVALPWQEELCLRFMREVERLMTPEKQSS
Procedure: (§1) The FAAH assay was carried out in 384-well clear polystyrene plates (Evergreen Scientific) in a total volume of 50 μl per well in a manner similar to that described by Mileni et al., Proc. Nat. Acad. Sci. 2008, 105, 12820-12824. All percents are by volume. Serial dilutions of compound were initially prepared in 100% DMSO, and then diluted two-fold into HPLC-grade H2O to give 50% DMSO. To each well, was placed the reaction mixture (40 μl) containing 1-4 nM FAAH, 50 mM NaPi, pH 7.4, 3 mM α-ketoglutarate, 0.15 mM NADH, 7.5 U/ml glutamate dehydrogenase, 2 mM ADP, 1 mM EDTA, and 0.1% Triton X-100 (The concentration shown for each component is the final concentration in the assay). To this mixture, was added 5 μl of a compound of Examples 1 to 56 at various concentrations in 50% DMSO (or 5 μl 50% DMSO for controls). This was immediately followed by the addition of 5 μl oleamide (500 μM) dissolved in 75% EtOH/25% DMSO and the reaction mixture was mixed for 1.5 min. The final concentrations of DMSO and EtOH in the assay were each 7.5%. The reactions were incubated at 30° C. and the absorbance at 340 nm was collected over a period of 90 min with readings taken in 30-second intervals using SpectraMax Plus^384 Microplate Spectrophotometer (Molecular Devices, Sunnyvale, Calif.). The human FAAH and rat FAAH used in the assay was prepared as described in the patent application WO 2006/067613 using wild-type E. coli cells transformed in St. Louis, Mo., U.S.A. The purity of the enzyme was greater than 98% based on an analysis by SDS-polyacrylamide gel electrophoresis followed by Coomassie Blue staining.
(§2) Reaction progress curves were corrected for the non-enzymatic oxidation of NADH by subtraction of absorbancies at each time point obtained from control reactions containing no FAAH enzyme. The loss of enzyme activity as a function of time is well-described by the following mathematical equation (1) for a mono-exponential decay: […]
(§3) where At represents the absorbance at time t, A0 represents the absorbance at time zero, and C represents a constant. Observed rates of enzyme inactivation (kobs) were determined from the non-linear reaction progress curves by fitting the corrected absorbancies to an equation for a mono-exponential decay using the third-party Microsoft Excel plug-in, XLfit (IDBS Limited). Secondary plots of kobs vs. inhibitor concentration were prepared from kobs values obtained from progress curves. Second-order rates for enzyme inactivation, expressed as kinact/Ki (M^−1s^−1), were calculated from the slopes from linear regression analysis of the secondary plot of kobs vs. inhibitor concentration as defined in following equation (2), where [I]<<Ki:
(§4) The concentration of substrate in the assay was equal to the Km for oleamide of 50 μM. Therefore, reported kinact/Ki values are obtained by multiplying resulting slopes by a factor of two (i.e. slope=kinact/(Ki*2)).

[2] = target: T2, rat FAAH (Rattus norvegicus, UniProt P97612); test: FAAH assay, rat FAAH enzyme inhibition (kinact/Ki); assay type: biochemical; details: oleamide substrate 50 μM, 30° C., read-out: rFAAH kinact/Ki
T2 construct: made in house; host or cells: E. coli
T2 sequence (P97612 1-579): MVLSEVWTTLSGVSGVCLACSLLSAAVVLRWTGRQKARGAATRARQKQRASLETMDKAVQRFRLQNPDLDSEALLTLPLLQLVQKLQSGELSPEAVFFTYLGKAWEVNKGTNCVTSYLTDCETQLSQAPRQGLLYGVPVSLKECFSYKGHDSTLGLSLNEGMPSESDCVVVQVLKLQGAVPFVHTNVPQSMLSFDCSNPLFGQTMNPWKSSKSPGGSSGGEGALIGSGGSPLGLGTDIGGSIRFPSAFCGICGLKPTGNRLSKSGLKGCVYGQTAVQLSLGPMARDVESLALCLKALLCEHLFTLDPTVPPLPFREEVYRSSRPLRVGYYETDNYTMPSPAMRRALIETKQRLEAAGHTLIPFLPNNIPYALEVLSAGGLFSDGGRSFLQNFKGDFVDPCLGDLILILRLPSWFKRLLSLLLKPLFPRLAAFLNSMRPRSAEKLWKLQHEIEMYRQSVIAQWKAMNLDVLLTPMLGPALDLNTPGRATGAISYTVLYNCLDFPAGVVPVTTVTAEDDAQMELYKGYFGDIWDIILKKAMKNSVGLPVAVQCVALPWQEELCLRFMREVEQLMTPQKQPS
Procedure: as §1, §2, §3, §4

[3] = system: Male Sprague-Dawley Rats; test: In vivo Complete Freund's Adjuvant (CFA) efficacy assay; design: species or system rat; key: (+) indicates the test compound was determined to be efficacious at 3 mpk, oral dosing; (−) indicates the test compound was determined to not be efficacious at 3 mpk, oral dosing; details: 3 mpk, oral dosing; inhibition of allodynia (PWT) four hours postdose vs vehicle, p<0.05
Procedure: For additional information on the CFA efficacy assay, see Jayamanne et al., Brit. J. Pharmacol. 2006, 147, 281-288. Experiments were performed on adult Male Sprague-Dawley Rats (200 g-250 g). Inflammation was induced in the left hindpaw of the rat by an intra-plantar injection of 150 uL Complete Freund's Adjuvant (CFA) (SIGMA F5881). The CFA injection immediately induces local inflammation, paw swelling, and pain that persists for at least two weeks post-injection. Baseline paw withdrawal threshold (PWT) was measured to determine the percent inhibition of allodynia using a set of Von Frey Hairs on day 4 post injection as illustrated by the Dixon Up and Down Method (W. J. Dixon, Ann. Rev. Pharmacol. Toxicol. 1980, 20:441-462). […] Test compound was administered at a concentration of 3 mg/kg (mpk) orally with the dosing vehicle 5% N,N′-Dimethylacetamide (SIGMA D137510) and 95% (40% 2-hydroxypropyl-beta-cyclodextrin in water) (SIGMA H107). Following Dose administration PWT threshold was evaluated again at four hours postdose. The Sprague-Dawley rats used in this assay were purchased from Harlan, 8520 Allison Pointe Blvd., Indianapolis, Ind., 46250, U.S.A. Sprague-Dawley rats are an outbred breed of albino rats first produced by the Sprague Dawley farms in Madison, Wis., U.S.A.
Percent Inhibition of Allodynia was determined by the formula: […]
ΔPWT measurements were averaged for each treatment group and statistical comparisons between groups were made using ANOVA and Dunnett's two-tailed test. […]

| kinact/KI [1] | kinact/KI [2] | Structure (SMILES) | CFA Efficacy [3] |
| --- | --- | --- | --- |
| 2220 M⁻¹ s⁻¹ | 1060 M⁻¹ s⁻¹ | Cc1noc(NC(=O)N2CCC3(CC2)CC(c2cccc4c2OC(F)(F)O4)C3)c1C [Example 28, 2-(2,2-difluoro-1,3-benzodioxol-4-yl)-N-(3,4-dimethylisoxazol-5-yl)-7-azaspiro[3.5]nonane-7-carboxamide] | (+) |
| 15400 M⁻¹ s⁻¹ | 3330 M⁻¹ s⁻¹ | Cn1nnnc1NC(=O)N1CCC2(CC1)CC(c1cccc(C(F)(F)F)c1F)C2 [Example 47, 2-[2-fluoro-3-(trifluoromethyl)phenyl]-N-(1-methyl-1H-tetrazol-5-yl)-7-azaspiro[3.5]nonane-7-carboxamide] | (+) |
| 3940 M⁻¹ s⁻¹ | 3560 M⁻¹ s⁻¹ | Cc1noc(NC(=O)N2CCC3(CC2)CC(c2cccc(Cl)c2)C3)c1C [Example 13, 2-(3-chlorophenyl)-N-(3,4-dimethylisoxazol-5-yl)-7-azaspiro[3.5]nonane-7-carboxamide] | (+) |
| 5670 M⁻¹ s⁻¹ | 1340 M⁻¹ s⁻¹ | CCc1cccc(C2CC3(CCN(C(=O)Nc4onc(C)c4C)CC3)C2)c1 [Example 22, N-(3,4-dimethylisoxazol-5-yl)-2-(3-ethylphenyl)-7-azaspiro[3.5]nonane-7-carboxamide] | (−) |
| 2940 M⁻¹ s⁻¹ | 1810 M⁻¹ s⁻¹ | Cc1noc(NC(=O)N2CCC3(CC2)CC(c2cccc(OCCOc4ccccc4Cl)c2)C3)c1C [Example 27, 2-{3-[2-(2-chlorophenoxy)ethoxy]phenyl}-N-(3,4-dimethylisoxazol-5-yl)-7-azaspiro[3.5]nonane-7-carboxamide] | (+) |
| 4480 M⁻¹ s⁻¹ | 1700 M⁻¹ s⁻¹ | Cc1noc(NC(=O)N2CCC3(CC2)CC(c2cccc(OCCOc4ccccc4)c2)C3)c1C [Example 26, N-(3,4-dimethylisoxazol-5-yl)-2-[3-(2-phenoxyethoxy)phenyl]-7-azaspiro[3.5]nonane-7-carboxamide] | (+) |
| 1650 M⁻¹ s⁻¹ | 1660 M⁻¹ s⁻¹ | CCc1noc(NC(=O)N2CCC3(CC2)CC(c2cccc(OC(F)(F)F)c2)C3)c1C [Example 34, N-(3-ethyl-4-methylisoxazol-5-yl)-2-[3-(trifluoromethoxy)phenyl]-7-azaspiro[3.5]nonane-7-carboxamide] | (+) |
| 21700 M⁻¹ s⁻¹ | 26800 M⁻¹ s⁻¹ | Cn1nnnc1NC(=O)N1CCC2(CC1)CC(c1cccc(Oc3ccc(C(F)(F)F)cn3)c1)C2 [Example 54, N-(1-methyl-1H-tetrazol-5-yl)-2-(3-{[5-(trifluoromethyl)pyridin-2-yl]oxy}phenyl)-7-azaspiro[3.5]nonane-7-carboxamide] | (+) |
| 3460 M⁻¹ s⁻¹ | 1730 M⁻¹ s⁻¹ | Cc1noc(NC(=O)N2CCC3(CC2)CC(c2noc(-c4ccc(OC(F)(F)F)cc4)n2)C3)c1C [Example 15, N-(3,4-dimethylisoxazol-5-yl)-2-{5-[4-(trifluoromethoxy)phenyl]-1,2,4-oxadiazol-3-yl}-7-azaspiro[3.5]nonane-7-carboxamide] | (+) |
| 1600 M⁻¹ s⁻¹ | 636 M⁻¹ s⁻¹ | Cc1noc(NC(=O)N2CCC3(CC2)CC(c2noc(-c4ccc(C(F)(F)F)cc4)n2)C3)c1C [Example 33, N-(3,4-dimethylisoxazol-5-yl)-2-{5-[4-(trifluoromethyl)phenyl]-1,2,4-oxadiazol-3-yl}-7-azaspiro[3.5]nonane-7-carboxamide] | (+) |
| 2350 M⁻¹ s⁻¹ | 1370 M⁻¹ s⁻¹ | Cc1noc(NC(=O)N2CCC3(CC2)CC(c2cccc(F)c2F)C3)c1C [Example 19, 2-(2,3-difluorophenyl)-N-(3,4-dimethylisoxazol-5-yl)-7-azaspiro[3.5]nonane-7-carboxamide] | (+) |
| 13200 M⁻¹ s⁻¹ | 4570 M⁻¹ s⁻¹ | Cn1nnnc1NC(=O)N1CCC2(CC1)CC(c1cccc(OC(F)(F)F)c1)C2 [Example 45, N-(1-methyl-1H-tetrazol-5-yl)-2-[3-(trifluoromethoxy)phenyl]-7-azaspiro[3.5]nonane-7-carboxamide] | (+) |
